Reference: ChEMBL document CHEMBL5236569, “Emodin lows NPC1L1-mediated cholesterol absorption as an uncompetitive inhibitor” (2022)
The source made the active and inactive calls. No cut-off for these calls is given here.

What was measured:
[1] = Inhibition of cholesterol uptake in human HepG2 cells at 100 uM relative to control; type: functional
[2] = Inhibition of cholesterol uptake in human HepG2 cells at 75 uM relative to control; type: functional
[3] = Inhibition of cholesterol uptake in human HepG2 cells at 50 uM relative to control; type: functional
[4] = Inhibition of cholesterol uptake in human HepG2 cells at 25 uM relative to control; type: functional
[5] = Inhibition of cholesterol uptake in human HepG2 cells at 12.5 uM relative to control; type: functional
[6] = Inhibition of cholesterol uptake in human Caco-2 cells at 100 uM relative to control; type: functional
[7] = Inhibition of cholesterol uptake in human Caco-2 cells at 75 uM relative to control; type: functional
[8] = Inhibition of cholesterol uptake in human Caco-2 cells at 50 uM relative to control; type: functional
[9] = Inhibition of cholesterol uptake in human Caco-2 cells at 25 uM relative to control; type: functional
[10] = Inhibition of cholesterol uptake in human Caco-2 cells at 12.5 uM relative to control; type: functional
[11] = biological target: T1, NPC1-like intracellular cholesterol transporter 1 (Homo sapiens) (UniProt Q9UHC9); assay: Inhibition of NPC1L1in human HepG2 cells assessed as reduction in intracellular cholesterol content incubated for 60 mins by filipin dye based confocal microscopy analysis; type: cell-based
T1 sequence (whole entry): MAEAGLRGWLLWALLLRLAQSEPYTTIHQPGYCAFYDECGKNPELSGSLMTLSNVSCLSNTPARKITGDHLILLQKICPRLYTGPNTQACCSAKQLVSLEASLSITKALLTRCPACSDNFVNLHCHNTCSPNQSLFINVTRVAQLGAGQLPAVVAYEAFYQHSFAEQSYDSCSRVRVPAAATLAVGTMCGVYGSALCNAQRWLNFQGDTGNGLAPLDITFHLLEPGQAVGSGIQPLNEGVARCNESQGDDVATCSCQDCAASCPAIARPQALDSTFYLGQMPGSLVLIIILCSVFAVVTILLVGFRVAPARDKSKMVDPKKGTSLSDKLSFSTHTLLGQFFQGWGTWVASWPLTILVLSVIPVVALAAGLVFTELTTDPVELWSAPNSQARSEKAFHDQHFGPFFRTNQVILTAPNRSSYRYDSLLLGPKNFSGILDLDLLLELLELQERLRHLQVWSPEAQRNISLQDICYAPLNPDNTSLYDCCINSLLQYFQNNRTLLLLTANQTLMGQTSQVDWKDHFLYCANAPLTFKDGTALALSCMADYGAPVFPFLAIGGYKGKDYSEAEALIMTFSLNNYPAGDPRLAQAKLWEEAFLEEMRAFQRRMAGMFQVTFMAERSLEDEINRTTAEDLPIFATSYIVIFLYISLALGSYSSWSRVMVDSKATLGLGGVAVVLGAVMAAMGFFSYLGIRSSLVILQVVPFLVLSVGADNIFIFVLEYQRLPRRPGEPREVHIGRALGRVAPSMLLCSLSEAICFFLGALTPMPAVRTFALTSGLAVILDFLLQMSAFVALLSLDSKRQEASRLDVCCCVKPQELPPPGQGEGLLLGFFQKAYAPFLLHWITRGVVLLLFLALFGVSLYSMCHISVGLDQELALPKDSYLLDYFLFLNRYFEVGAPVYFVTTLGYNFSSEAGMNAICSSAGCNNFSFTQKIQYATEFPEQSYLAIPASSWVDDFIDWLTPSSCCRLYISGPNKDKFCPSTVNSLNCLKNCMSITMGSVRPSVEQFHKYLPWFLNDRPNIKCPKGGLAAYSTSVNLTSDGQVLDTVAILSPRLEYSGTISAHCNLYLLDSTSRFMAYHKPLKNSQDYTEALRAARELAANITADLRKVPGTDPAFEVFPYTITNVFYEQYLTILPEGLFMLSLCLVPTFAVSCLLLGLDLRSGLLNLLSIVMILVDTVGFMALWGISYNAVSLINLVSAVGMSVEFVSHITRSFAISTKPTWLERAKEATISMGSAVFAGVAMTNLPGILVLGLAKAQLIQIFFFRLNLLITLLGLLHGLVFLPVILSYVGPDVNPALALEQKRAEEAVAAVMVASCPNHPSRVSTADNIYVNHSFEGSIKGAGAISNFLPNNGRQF

[12] = biological target: T1, NPC1-like intracellular cholesterol transporter 1 (Homo sapiens); assay: Inhibition of NPC1L1in human HepG2 cells assessed as increase in intracellular cholesterol content incubated for 60 mins by filipin dye based confocal microscopy analysis; type: cell-based
[13] = biological target: T1, NPC1-like intracellular cholesterol transporter 1 (Homo sapiens); assay: […] inhibition of NPC1L1 (unknown origin) assessed as decrease in Km at upto 150 uM by Lineweaver-burk double inverse plot analysis
[14] = biological target: T1, NPC1-like intracellular cholesterol transporter 1 (Homo sapiens); assay: […] inhibition of NPC1L1 (unknown origin) assessed as decrease in Vmax at upto 150 uM by Lineweaver-burk double inverse plot analysis
HepG2 = assay: Effect on NPC1L1 expression in human HepG2 cells at 1 to 100 uM incubated for 24 hrs; type: functional, cell-based; conditions: dose 1-100 µM

Question: Which results are given for `Cc1cc(O)c2c(c1)C(=O)c1cc(O)cc(O)c1C2=O` [EMODIN]?
Answer: inhibition at 100 µM [1]: 27%; inhibition at 75 µM [2]: 31.3%; inhibition at 50 µM [3]: 33.6%; inhibition at 25 µM [4]: 41.6%; inhibition at 12.5 µM [5]: 52.6%; inhibition at 100 µM [6]: 29%; inhibition at 75 µM [7]: 28%; inhibition at 50 µM [8]: 32.3%; inhibition at 25 µM [9]: 39.6%; inhibition at 12.5 µM [10]: 44.3%; Activity [11]: Active; Activity [12]: Active; Activity [13]: Active; Activity [14]: Active; Activity (HepG2): Active

Question: Which inhibition at 100 µM [1] does the source give for `O=C1[C@H](CC[C@H](O)c2ccc(F)cc2)[C@@H](c2ccc(O)cc2)N1c1ccc(F)cc1` [EZETIMIBE] here?
Answer: 48.3%

Question: What about the inhibition at 100 µM [6] of the same compound?
Answer: 70%

Question: What about the Activity [11] of the same compound?
Answer: inactive

Question: And the Activity [12]?
Answer: Active
